# Measurements as given in patent publication US20210352900A1, “Method for Controlling PPO Resistant Weeds” (BASF SE, priority 2016, published 2021).
# Tests used:
# [1] = tested on: Amaranthus tamariscinus (AMATA, common waterhemp), sensitive biotype (w.1); assay: Greenhouse herbicidal activity test, sensitive common waterhemp (w.1); type: in vivo; settings: for Weed control (%) w.1: sensitive biotype, scale 0 (no damage) to 100 (complete destruction)
# [2] = tested on: Amaranthus tamariscinus (AMATA, common waterhemp), PPO resistant biotype 1 (w.2); assay: Greenhouse herbicidal activity test, PPO resistant common waterhemp biotype 1 (w.2); type: in vivo; settings: for activity on / control of resistant weeds (w.2), in words: azafenidin: in comparison to sensitive biotypes; for Weed control (%) w.2: PPO resistant biotype 1, scale 0 to 100
SMILES,Weed control (%) w.1 ([1]; use rate 2 g/ha) [%],Weed control (%) w.1 ([1]; use rate 4 g/ha) [%],"activity on / control of resistant weeds (w.2), in words [2]",Weed control (%) w.2 ([2]; use rate 2 g/ha) [%],Weed control (%) w.2 ([2]; use rate 4 g/ha) [%],"activity on sensitive weeds (w.1), in words [1]"
"C#CCOc1cc(-n2nc3n(c2=O)CCCC3)c(Cl)cc1Cl [azafenidin, reference compound]",95,98,much weaker control,67,73,
"CCc1ccc(COc2ccc(-n3c(=O)cc(C(F)(F)F)n(C)c3=O)cc2)c(OC(C)C(=O)OC)c1 (centres unmarked) [(I).1, benzfendizone]",94,100,very good activity,89,92,very good activity
